In ChEMBL document CHEMBL2157964, “Effect of alkyl chain length on sphingosine kinase 2 selectivity” (Bioorg Med Chem Lett, 2012) one finds Ki, Activity and Ratio Ki data, which are given here for 19 compounds.

Each structure is given as a SMILES string.

Assay [1] has as its target T1, Sphingosine kinase 1 (Homo sapiens, UniProt Q9NYA1). Briefly: Inhibition of recombinant SphK1 expressed in baculovirus infected Sf9 cells using D-erythro-sphingosine as substrate and [32gammaP]ATP by scintillation counting.
Assay [2] has as its target T1, Sphingosine kinase 1. Briefly: Inhibition of recombinant SphK1 expressed in baculovirus infected Sf9 cells using D-erythro-sphingosine as substrate and [32gammaP]ATP assessed as residual activity at 10 uM by scintillation counting.
The target in assay [3] is T2, Sphingosine kinase 2 (Homo sapiens) (UniProt Q9NRA0).
T2 sequence (whole entry): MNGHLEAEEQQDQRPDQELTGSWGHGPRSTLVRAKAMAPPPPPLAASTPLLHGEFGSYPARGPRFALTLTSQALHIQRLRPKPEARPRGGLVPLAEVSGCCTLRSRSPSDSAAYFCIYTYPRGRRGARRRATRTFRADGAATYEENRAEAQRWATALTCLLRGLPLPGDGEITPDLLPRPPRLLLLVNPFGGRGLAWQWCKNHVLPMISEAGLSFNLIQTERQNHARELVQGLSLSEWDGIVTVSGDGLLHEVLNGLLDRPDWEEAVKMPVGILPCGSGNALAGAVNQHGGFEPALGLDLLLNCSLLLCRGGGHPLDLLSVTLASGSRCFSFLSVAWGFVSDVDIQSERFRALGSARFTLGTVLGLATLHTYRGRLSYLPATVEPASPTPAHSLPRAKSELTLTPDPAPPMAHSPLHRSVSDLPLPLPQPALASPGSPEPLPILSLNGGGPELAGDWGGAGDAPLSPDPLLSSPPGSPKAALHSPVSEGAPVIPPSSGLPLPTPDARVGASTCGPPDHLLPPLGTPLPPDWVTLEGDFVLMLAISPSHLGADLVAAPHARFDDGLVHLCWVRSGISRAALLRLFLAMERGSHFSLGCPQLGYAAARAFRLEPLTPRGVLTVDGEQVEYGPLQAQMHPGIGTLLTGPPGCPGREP
Briefly: Inhibition of recombinant SphK2 expressed in baculovirus infected Sf9 cells using D-erythro-sphingosine as substrate and [32gammaP]ATP assessed as residual activity at 10 uM by scintillation counting.

Assay [4] addresses T3, Sphingosine kinase 2 (Homo sapiens, UniProt Q9NRA0).
T3 sequence (Q9NRA0 whole entry): T2 sequence (whole entry)
As to the kind of experiment: Inhibition of recombinant SphK2 expressed in baculovirus infected Sf9 cells using D-erythro-sphingosine as substrate and [32gammaP]ATP by scintillation counting.

The target of assay [5] is T3, Sphingosine kinase 2. As to the kind of experiment: Inhibition of human recombinant SphK2 using NBD-sphingosine as substrate after 2 hrs by HPLC analysis.
In assay [6] the target is T3, Sphingosine kinase 2. As to the kind of experiment: Inhibition of SphK2 using sphingosine as substrate and [32gammaP]ATP after 15 to 20 mins by Cerenkov counting analysis.
A short description of assay [7]: Selectivity ratio of Ki for recombinant SphK1 to Ki for recombinant SphK2.

T1 sequence (Q9NYA1 whole entry): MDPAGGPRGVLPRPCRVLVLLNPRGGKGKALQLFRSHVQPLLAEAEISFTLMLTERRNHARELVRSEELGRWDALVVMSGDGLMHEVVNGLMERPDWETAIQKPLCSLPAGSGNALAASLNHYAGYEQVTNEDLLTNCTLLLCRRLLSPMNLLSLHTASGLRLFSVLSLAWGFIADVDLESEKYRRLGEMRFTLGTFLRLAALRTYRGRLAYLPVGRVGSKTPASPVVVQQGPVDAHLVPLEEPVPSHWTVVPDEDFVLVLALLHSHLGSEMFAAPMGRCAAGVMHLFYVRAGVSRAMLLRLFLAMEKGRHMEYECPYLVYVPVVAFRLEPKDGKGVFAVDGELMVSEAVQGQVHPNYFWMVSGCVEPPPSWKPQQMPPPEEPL

As to `CCCCCCc1ccc([C@H]2CC[C@H]([N+](C)(C)CCC)CC2)cc1`, the inhibitory constant (Ki) (in general, a dissociation constant, usually derived from enzyme kinetics or from competition with a known ligand) in assay [1] is 35 µM; in assay [4], 43 µM. Also, the Activity in assay [2] and in assay [3] was 98% each time.
As for `CCCCCCCC#Cc1ccc([C@H]2CC[C@H]([N+](C)(C)CCC)CC2)cc1`, the Activity in assay [2] was 87%; in assay [3], 100%.
Regarding `CCCCCCCCCCc1ccc([C@H]2CC[C@H]([N+](C)(C)CCC)CC2)cc1`, the inhibitory constant (Ki) in assay [1] was determined as 35 µM; in assay [4] it was 43 µM. Further, the Activity in assay [2] came to 67%; in assay [3], 26%.
Consider `O=C(NCc1ccncc1)C12CC3CC(C1)CC(c1ccc(Cl)cc1)(C3)C2` [ABC-294640], for which the Ki in assay [5] was found to be 9.8 µM.
On to `CCCCCCCCC#Cc1ccc([C@H]2CC[C@H]([N+](C)(C)CCC)CC2)cc1`, for which the Activity in assay [2] worked out at 61%; in assay [3] it was 78%.
Consider `CCCCCCCCCCCC(=O)c1ccc([C@H]2CC[C@H]([N+](C)(C)CCC)CC2)cc1`, for which the Activity is 88% in assay [2] and 41% in assay [3].
`CCCCCCCCc1ccc(CC[C@@](N)(CO)COC)cc1`: the inhibitory constant (Ki) in assay [6] was 16.5 µM.
As to `CCCCCCCCCCCCc1ccc([C@H]2CC[C@H]([N+](C)(C)CCC)CC2)cc1`, the inhibition constant (Ki) worked out at 13 µM in assay [1] and 8 µM in assay [4]. Moreover, the results for the Activity in assay [2] and in assay [3] were 63% and 26%, respectively.
Take `CCCCCCCCCC#Cc1ccc([C@H]2CC[C@H]([N+](C)(C)CCC)CC2)cc1`: the Activity in assay [2] stood at 62%; in assay [3], 28%.
Regarding `CCCCCCCCCCCCCCc1ccc([C@H]2CC[C@H]([N+](C)(C)CCC)CC2)cc1`, the values for the inhibition constant Ki in assay [1] and in assay [4] were 36 µM and 7 µM, respectively. The Activity was found to be 76% in assay [2] and 38% in assay [3]. In addition, the Ratio Ki in assay [7] worked out at 3.
With `CCCCCCCCCC(=O)c1ccc([C@H]2CC[C@H]([N+](C)(C)CCC)CC2)cc1`, the Activity in assay [2] stood at 93%; in assay [3] it was 75%.
On to `CCCCCCCCc1ccc([C@H]2CC[C@H]([N+](C)(C)CCC)CC2)cc1`, for which the inhibition constant (Ki) in assay [1] worked out at 22 µM; in assay [4], 21 µM. For the same compound, the results for the Activity in assay [2] and in assay [3] were 100% and 64%, respectively.
As for `CCCCCCCCCCCc1ccc([C@H]2CC[C@H]([N+](C)(C)CCC)CC2)cc1`, the inhibition constant Ki in assay [1] is 15 µM; in assay [4] it was 11 µM. In addition, the Activity in assay [2] was 44%; in assay [3], 50%.
On to `CCCCCCCOc1ccc([C@H]2CC[C@H]([N+](C)(C)CCC)CC2)cc1`, for which the values for the Activity in assay [2] and in assay [3] were 100% and 70%, respectively.
For `CCCCCCCCCCCCCCCC(=O)c1ccc([C@H]2CC[C@H]([N+](C)(C)CCC)CC2)cc1`, the Activity is 77% in assay [2] and 58% in assay [3].
In the case of `CCCCCCCCCCC(=O)c1ccc([C@H]2CC[C@H]([N+](C)(C)CCC)CC2)cc1`, the Activity in assay [2] came to 79%; in assay [3], 40%.
`CCCCCCCCCCCCCC(=O)c1ccc([C@H]2CC[C@H]([N+](C)(C)CCC)CC2)cc1`: the Activity in assay [2] is 73%; in assay [3], 50%.
As to `CCCCCC(=O)c1ccc([C@H]2CC[C@H]([N+](C)(C)CCC)CC2)cc1`, the Activity in assay [2] stood at 89%; in assay [3] it was 71%.
As for `CCCCCCCCCCCCCCCCc1ccc([C@H]2CC[C@H]([N+](C)(C)CCC)CC2)cc1`, the results for the Ki in assay [1] and in assay [4] were 27 µM and 29 µM, respectively. Besides, the Activity amounted to 94% in assay [2] and 70% in assay [3].
